Results published in patent US11186560B2, “Arthropod repellent chemicals” (The Regents of the University of California, priority 2015, dated 2021).

Legend:
[1] = system: Aedes aegypti; assay: Aedes aegypti 2-choice landing assay (two-choice heat assay); type: in vivo; conditions: compounds at 3% concentration; female Aedes aegypti; two heat sources at 37 C. as attractants; 5 minute trial
Experimental: In order to test the compounds in mosquitoes, a Two-choice heat assay in Aedes aegypti was performed. A pair of heat sources were prepared using 2 hand warmers fitted into a 100×15 mm petri dish base and covered with 15×15 cm polyester netting secured round the petri dish by a pair or 8 inch plastic cable ties (Gardner Bender, Milwaukee, Wis.) coupling. Excess netting material was trimmed off round the edges of the petri dish. The treatment chemical 500 μl was added at 3% concentration directly onto the netting and the two assembled dishes were placed inside a cage of 20 female A. aegypti mosquitoes. Total numbers of mosquito landings on the net covering of each dish were counted during the assay from video recordings of the 5 minute trial. The solvent and DEET positions were alternated between runs.

[2] = system: Drosophila melanogaster; assay: Drosophila melanogaster 2-choice trap assay; type: in vivo; conditions: compounds at 5% concentration; 48 hours; negative P.I. indicates repellency
Experimental: In a second type of assay, a Drosophila melanogaster 2-choice trap assay as described previously^4,6 was used with minor modifications. Traps were made with two 1.5 ml microcentrifuge tubes (USA Scientific) and 200 microliter pipette tips (USA Scientific), each cap contained standard cornmeal medium. T-shape piece of filter paper (Whatman #1) was impregnated with 5 ul of acetone (control) or 5 microliters of 5% test odor, diluted in acetone. Traps were placed within a petri dish (100×15 mm, Fisher) containing 10 ml of 1% agarose to provide moisture. Ten wild-type Drosophila melanogaster flies 4-7 days old were used per trial, which lasted 48 hours by which time point nearly all flies in the assays had made a choice and were counted. Preference Index (P.I.)=(number of flies in treated trap−number in control trap)/(number of flies in treated+control traps).

[3] = system: Aedes aegypti; assay: Aedes aegypti 1-choice landing assay (heat source attractant); type: in vivo; conditions: compounds at 3% concentration; female Aedes aegypti; one heat source at 37 C. as attractant
[4] = system: Drosophila melanogaster; assay: Drosophila melanogaster T-maze assay; type: in vivo; conditions: compounds at 5% concentration; average of 3 trials; negative P.I. indicates repellency
Experimental: T-maze assay was used to test selected compounds. 4-7 day old starved wild-type flies of Drosophila melanogaster (20 males plus 20 females/trial) were tested. Under a chemical hood, 10 ul of solvent and 10 ul of test chemical were applied onto filter paper placed in control tubes and test tubes. The flies were loaded into the elevator of a T-maze apparatus and lowered into position where they could make a choice between the solvent tube and the test chemical tube. After allowing flies to make choice for 1 minute in dark, the elevator was closed and number of flies in each tube was counted. Preference Index (P.I.)=(#flies in test arm−#flies in control arm)/(#flies in test arm+#flies in control arm). The results presented in Table 2 report the average Preference Index from 3 independent trials.

[5] = system: Aedes aegypti females; assay: Modified arm-in-cage assay; type: in vivo; conditions: 3% 4-methyl piperidine on filter paper adjoining netted landing window of glove
From the text: FIG. […] (2a) Control and 4-MP treated gloves; (2b) Mean numbers of landings within minutes 2-5 of the assay. N=4 trials, ˜40 mosquitoes/trial.
The identification of these compounds started with understanding the biochemical, spacial charge density and other biochemical and physical factors aside from straight chemical structure for imparting the activity with existing DEET-like chemical structure and are therefore studying just DEET-like properties there were limits in finding completely novel classes of repellents that are not structurally related to DEET. Additional properties were then added. […] Olfactory avoidance to DEET is active over a short range (˜1 cm) and mosquitoes are not repelled beyond the immediate vicinity. Therefore, a modified arm-in-cage assay was developed where a low concentration of 4-MP can be applied to filter paper pieces adjoining the netted landing window of the glove (FIG. 2a). […]

[6] = system: mosquitoes; conditions: cited from earlier work

Compound | P.I. (mean preference index) [1] | Average % Repellency [3] [%] | P.I. (mean preference index) [4] | also measured
c1ccc2c(c1)CCCN2 [1,2,3,4-Tetrahydroquinoline] | −0.9965 | 99.82 |  | P.I. (mean preference index) [2]: −0.74
CCCCC1CO1 (centres unmarked) [1,2-Epoxyhexane] |  |  | −0.2 | 
CCN1CCCC1=O [1-Ethyl-2-pyrrolidone] |  |  |  | P.I. (mean preference index) [2]: −0.12
CC1=CCC=CC1 [1-methyl-1,4-cyclohexadiene] | −0.1584 | 27.01 | −0.76 | 
CC(C)CC1OCC(C)O1 (centres unmarked) [2-Isobutyl-4-methyl-1,3-dioxolane] | −0.2189 | 35.92 | −0.3 | 
CC1CCCO1 (centres unmarked) [2-methyl tetrahydrofuran] | −0.1815 | 29.78 |  | 
C1=COCCC1 [3.4-Dihydro-2H-pyran, 3,4-Dihydro-2H-pyran] |  |  | −0.88 | 
CC1=C(O)C(=O)C(C)O1 (centres unmarked) [4-Hydroxy-2,5-Dimethyl-3(2H)-Furanone] |  |  |  | P.I. (mean preference index) [2]: −0.24
CC1CC=CCC1 (centres unmarked) [4-methyl cyclohexene] | −0.8265 | 90.39 |  | 
CC1CCNCC1 [4-methyl piperidine] |  |  |  | Repellency from skin-exposed net window [5]: effectively repel mosquitoes
CCN(CC)C(=O)c1cccc(C)c1 [DEET, N,N-Diethyl-m-toluamide] |  |  |  | Range over which olfactory avoidance is active [6]: ~1 cm
C1=COCCC1 [Dihydropyran] | −0.2819 |  |  | 
CCC1=C(O)C(=O)CC1 [Ethyl cyclopentenolone] | −0.7423 | 77.44 |  | 
CC1COC(C)(C)O1 (centres unmarked) [Propylene glycol acetone ketal] |  |  | −0.09 | 
COC(=O)Cc1ccc(C(C)(C)C)cc1 [methyl 2-(4-tert-butylphenyl)acetate] |  |  |  | P.I. (mean preference index) [2]: −0.14
Isopropyl Quinoline |  | 96.36 | −0.17 | 
